{"source": "patent US20120028837A1", "about": "“RAPID SCREEN FOR REPRODUCTIVE TOXICANTS” (PRESIDENT AND FELLOWS OF HARVARD COLLEGE, priority 2010, published 2012)", "key": {"C. elegans germline [1]": {"test_system": "C. elegans germline", "test": "Size of mitotic zone of the germline (DAPI, phospho-histone H3 staining)", "conditions": "in vivo", "text": "In C. elegans, the germline is comprised of two main compartments, a mitotic region (the premeiotic tip), where nuclei are under the influence of the distal tip cell that maintains them in a proliferative state; and the meiotic region, where nuclei progress through the stages of Prophase I before being fertilized. The mitotic compartment of the worm gonad following BPA exposure was examined.\nBPA bears endocrine disrupting activity in many developmental contexts including gonadal, brain and mammary gland development. BPA has affinity for multiple members of the estrogen receptors family, in particular BPA binds to the human estrogen receptor alpha (ERα) and ERβ as well as estrogen-related receptor gamma (ERR-γ) and in C. elegans with nuclear hormone receptor NHR-14 which also binds estrogen. […] Two hallmarks of exposure to BPA were examined, the decrease in the size of the proliferative zone and the condensation defects observed at diakinesis, as they are both highly penetrant and consistent phenotypes. […] Similarly to the experiments described above, the size of the mitotic zone was quantified as well as condensation defects at diakinesis.\n(§1) Growing Conditions and Drug Exposures. Worms were cultured according to [23] at 20° C. on NGM plates without cholesterol. […] Exposure was carried from embryogenesis to adulthood by plating sodium hypochloride treated eggs onto drug and control plates and incubated at 20° C. for four days.\nAntibody Staining. DAN staining, immunostaining and analysis of stained meiotic nuclei were performed as in [25] except for ATL-1 and AIR-2 antibodies were dissected gonads were subjected to a 1% fixation method as described in [27]. […] The secondary antibodies used were: Cy3 anti-rabbit, FITC anti-guinea-pig and FITC anti-mouse (Jackson Immunochemicals), each at 1:100, Stacks of 0.2 μm slices were captured using a Leica microscope, coupled to the DeltaVision fluorescence microscope system (Applied Precision). […]"}, "xol-1::GFP worms": {"test_system": "xol-1::GFP worms", "test": "Lethality, chemical sensitivity of xol-1::GFP strain", "assay_type": "in vivo, C. elegans", "conditions": "100 μM, 500 μM and 1 mM, four days from eggs to adulthood, 25 worms", "description": "The sensitivity of the xol-1::GFP, nx3 strain compared to the xol-1::GFP strain was assayed by exposing 25 worms for four days (from eggs to adulthood) to a range of concentration of Bisphenol A: 100 μM, 500 μM and 1 mM. The nx3 cuticle mutation was expected to confer increased sensitivity to BPA."}, "in vivo": {"test": "in vivo", "conditions": "C. elegans", "experimental": "The internal concentration of free BPA was measured by tandem HPLC analysis (Axys, BC, Canada) following an extensive number of physiological buffer washes and lysis of worms cultured on BPA plates (Materials an Methods)."}, "C. elegans germline [2]": {"test_system": "C. elegans germline", "test": "Synaptonemal complex and chromatin integrity in transition zone and pachytene (HTP-3, SYP-1, HIM-8, DAPI)", "assay_type": "in vivo", "text": "To examine meiotic chromosome synapsis in C. elegans following BPA exposure, assembly of the synaptonemal complex was examined by assessing the localization of the axial element protein HTP-3 (a paralogue of the axial component HIM-3 required for proper synapsis and pairing of homologous chromosomes) and the central region protein SYP-1 [45], as the nuclei enter meiosis. As nuclei exit mitosis and progress into meiosis in wild type germlines, HTP-3 and SYP-1 are assembled onto the chromatin as foci and short tracks which increase in length through the transition zone. By pachytene, the polymerization of the SC is completed and both proteins form fully elongated tracks spanning the entire length of the homologous chromosomes. Following exposure to BPA, the kinetics and extent of assembly of HTP-3 and SYP-1 onto the chromatin during transition zone were not affected when compared to control (n=10 gonads).\nThese abnormal nuclei were not simply apoptotic nuclei as they were not specifically found near the bend of the gonad, where germline nuclei were cleared by apoptosis but instead could be found throughout pachytene. As disruption of the integrity of the SC could lead to a separation of the homologous chromosomes, the localization of the X specific pairing center component HIM-8 was examined. In C. elegans, specific loci, termed pairing centers, on chromosomes allow for the physical interaction between homologous pairs. HIM-8 along with other pairing center components associate with the pairing centers and the nuclear envelope and mediate homologous pairing."}, "C. elegans": {"test_system": "C. elegans", "conditions": "in vivo, 4 days, 1 mM", "description": "To address whether BPA also affects C. elegans reproduction, worms were exposed to various concentrations of BPA under several culture conditions. The parameters tested were: BPA concentration (100 uM, 500 uM or 1 mM), vehicle (DMSO or ethanol), cholesterol concentration (5 ug/ml, 0.5 ug/ml or none) and culture method (liquid or plate).\nas §1"}, "C. elegans germline [3]": {"test_system": "C. elegans germline", "conditions": "in vivo", "text": "Synapsis and recombination are tightly linked events during pachytene throughout various species, as it is only in the context of a fully assembled SC that crossover recombination can be completed. Indeed, in C. elegans, null mutants of SC components such as syp-1, syp-2, syp-3, syp-4 and him-3, increased levels of RAD-51 foci formation and delayed kinetics of foci turnover are observed during pachytene. Consequently, there is activation of the DNA damage checkpoint leading to increased germ cell apoptosis. Recombination is an essential and highly regulated process for the exchange of information that takes place during prophase I [18]. As nuclei exit mitosis and progress through meiosis, programmed meiotic DNA double strand breaks (DSBs) are formed and processed by several DNA repair proteins including RAD-51 [25, 48]. […] As unrepaired recombination intermediates can trigger a DNA-damage checkpoint during pachytene leading to increased germ cell apoptosis, the number of apoptotic nuclei following BPA exposure was measured by Syto-12 staining. […]\nQuantification of Germ Cell Apoptosis. Apoptotic germline nuclei were scored in young adults between 20 and 24 hours post-L4 using SYTO-12 (Invitrogen) and were processed as described in [26]. […] Both GFP positive and negative worms (heterozygous and homozygous for cep-1 respectively) were analyzed following BPA exposure. […]"}}, "data": [{"smiles": "CC(C)(c1ccc(O)cc1)c1ccc(O)cc1", "note": "[BPA, Bisphenol A]", "values": [{"measurement": "size of the premeiotic tip a day later", "setting": "C. elegans germline [1]", "result": "No significant increase"}, {"measurement": "lethality", "setting": "xol-1::GFP worms", "result": 0, "unit": "%"}, {"measurement": "concentration at 4 days, 1 mM", "setting": "in vivo", "result": 2000, "unit": "ng/g"}, {"measurement": "pachytene nuclei with DAPI stained bodies or fragments", "setting": "C. elegans germline [2]; BPA exposure", "result": "about 10%"}, {"measurement": "kinetics and extent of assembly of HTP-3 and SYP-1 onto chromatin during transition zone", "setting": "C. elegans germline [2]; BPA exposure vs control", "result": "not affected"}, {"measurement": "HIM-8 foci per nucleus throughout pachytene", "setting": "C. elegans germline [2]; BPA treated worms", "result": 1, "unit": "focus per nucleus"}, {"measurement": "chromosome synapsis in pachytene nuclei (SYP-1 staining)", "setting": "C. elegans germline [2]; BPA treated worms", "result": "defects in chromosome synapsis"}, {"measurement": "embryonic viability", "setting": "C. elegans", "result": "1.5 % of controls"}, {"measurement": "reduction in the number of eggs laid (brood size) compared to vehicle", "setting": "C. elegans", "result": 4, "unit": "fold"}, {"measurement": "apoptotic levels in a cep-1 mutant background", "setting": "C. elegans germline [3]", "result": "reduced to normal levels"}, {"measurement": "number of apoptotic nuclei compared to vehicle", "setting": "C. elegans germline [3]", "result": "two to three-fold increase"}]}]}
